Experimental data published in patent US8680089B2, “Fused pyridine derivatives” (Xuanzhu Pharma Co., Ltd., priority 2010, dated 2014).
Read-outs that look alike come from different tables or passages of the source.

Tests used:
Assay type in all cases: biochemical
DPP-8 = DPP-8 (Homo sapiens, UniProt Q6V1X1); experiment: Inhibition to DPP-8 measured by a fluorescence assay (DPPIV-Glo); conditions: 111.9 pM DPP-8, pH 7.5, 10 min preincubation at RT, 30 min reaction, 8 concentrations, assayed twice
Experimental: (§1) The preparation of the reaction solution DPPIV-Glo® buffer should be thawed in advance. The freeze-dried […] should be taken out of the refrigerator in advance and left to room temperature. The DPPIV-Glo® substrate was dissolved in 110 μl water, and mixed thoroughly by votex as a stock solution (the concentration is 10 mmol). The […] was added into an ampoule containing 50 mL DPPIV-Glo™ buffer. Then, 100 μl solution containing DPPIV-Glo™ substrate was mixed with 50 mL DPPIV-Glo™ buffer containing a […] to afford the reaction solution, which needs to be stored in a refrigerator at −20° C.
2. The inhibition to DPP-8 was measured by a fluorescence assay:
(§2) All of the compounds were 10-fold diluted by DMSO before the experiment, and each compound needs to be diluted to 8 concentrations. Before the experiment, the solution containing DPP-8 enzyme was incubated with the mixture of compounds for 10 min at RT. And then, the reaction solution was added and incubated for 30 min. The enzyme was not added to the negative control group. The fluorescence signal was assayed after 30 min. All of the compounds were assayed twice.

DPP-9 = DPP-9 (Homo sapiens, UniProt Q86TI2); experiment: Inhibition to DPP-9 measured by a fluorescence assay (DPPIV-Glo)
Experimental: as §1
3. The inhibition to DPP-9 was measured by a fluorescence assay:
as §2, with “DPP-9” for “DPP-8”

DPP-IV = DPP-IV (Homo sapiens, UniProt P27487); experiment: Inhibition to DPP-IV measured by a fluorescence assay (DPPIV-Glo); conditions: 66 pM DPP-4, pH 7.5, 10 min preincubation at RT, 30 min reaction, 8 concentrations, assayed twice
Experimental: as §1
1. The inhibition to DPP-IV was measured by a fluorescence assay:
as §2, with “DPP-IV” for “DPP-8”

[1] = 26 pM DPP-9, pH 7.5, 10 min preincubation at RT, 30 min reaction, 8 concentrations, assayed twice, read-out: IC50 DPP-9

DPP-9, sequence (Q86TI2 whole entry, species assumed): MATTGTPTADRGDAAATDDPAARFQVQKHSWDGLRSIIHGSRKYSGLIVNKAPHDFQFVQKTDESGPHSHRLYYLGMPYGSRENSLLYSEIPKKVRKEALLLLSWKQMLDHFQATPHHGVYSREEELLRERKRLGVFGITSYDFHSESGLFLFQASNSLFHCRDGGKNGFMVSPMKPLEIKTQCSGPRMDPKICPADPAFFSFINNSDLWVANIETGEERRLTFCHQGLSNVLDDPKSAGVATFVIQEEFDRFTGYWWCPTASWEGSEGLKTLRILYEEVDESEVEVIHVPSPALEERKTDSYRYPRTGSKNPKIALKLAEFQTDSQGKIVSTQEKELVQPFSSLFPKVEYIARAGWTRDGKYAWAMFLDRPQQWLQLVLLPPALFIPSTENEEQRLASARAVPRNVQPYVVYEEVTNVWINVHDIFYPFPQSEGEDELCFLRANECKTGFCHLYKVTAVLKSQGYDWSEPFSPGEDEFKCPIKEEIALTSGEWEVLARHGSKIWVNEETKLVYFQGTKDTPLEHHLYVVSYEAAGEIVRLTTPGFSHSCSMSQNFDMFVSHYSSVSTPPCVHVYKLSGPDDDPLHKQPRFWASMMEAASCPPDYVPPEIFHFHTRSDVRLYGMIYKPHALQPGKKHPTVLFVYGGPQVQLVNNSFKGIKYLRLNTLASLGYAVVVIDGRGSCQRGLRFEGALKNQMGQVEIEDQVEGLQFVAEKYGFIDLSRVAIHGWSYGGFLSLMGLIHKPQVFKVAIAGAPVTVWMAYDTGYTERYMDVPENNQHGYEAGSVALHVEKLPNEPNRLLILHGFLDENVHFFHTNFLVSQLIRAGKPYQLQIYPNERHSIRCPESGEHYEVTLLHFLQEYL
DPP-8, sequence (Q6V1X1 whole entry, species assumed): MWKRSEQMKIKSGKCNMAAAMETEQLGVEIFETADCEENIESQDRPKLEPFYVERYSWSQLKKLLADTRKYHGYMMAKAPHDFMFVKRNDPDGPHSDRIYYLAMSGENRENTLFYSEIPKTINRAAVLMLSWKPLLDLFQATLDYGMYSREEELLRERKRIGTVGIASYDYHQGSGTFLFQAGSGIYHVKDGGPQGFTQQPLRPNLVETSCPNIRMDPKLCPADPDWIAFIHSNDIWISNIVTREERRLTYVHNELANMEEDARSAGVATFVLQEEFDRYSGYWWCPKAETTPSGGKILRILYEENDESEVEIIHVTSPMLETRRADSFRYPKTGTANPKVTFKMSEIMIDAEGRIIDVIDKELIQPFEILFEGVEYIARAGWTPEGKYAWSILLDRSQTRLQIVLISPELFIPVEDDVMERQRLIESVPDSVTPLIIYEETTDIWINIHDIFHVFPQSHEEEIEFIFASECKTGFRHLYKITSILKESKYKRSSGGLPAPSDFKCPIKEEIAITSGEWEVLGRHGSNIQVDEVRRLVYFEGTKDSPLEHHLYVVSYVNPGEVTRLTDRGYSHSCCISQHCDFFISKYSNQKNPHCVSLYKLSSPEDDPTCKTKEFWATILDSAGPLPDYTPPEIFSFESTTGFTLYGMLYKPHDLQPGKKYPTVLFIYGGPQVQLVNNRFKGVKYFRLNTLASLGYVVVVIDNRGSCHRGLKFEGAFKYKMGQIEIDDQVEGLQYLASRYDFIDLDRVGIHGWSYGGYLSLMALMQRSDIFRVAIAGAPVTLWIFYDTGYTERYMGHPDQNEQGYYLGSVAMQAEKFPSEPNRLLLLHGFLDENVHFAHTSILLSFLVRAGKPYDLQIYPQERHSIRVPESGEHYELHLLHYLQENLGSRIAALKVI
DPP-IV, sequence (P27487 whole entry, species assumed): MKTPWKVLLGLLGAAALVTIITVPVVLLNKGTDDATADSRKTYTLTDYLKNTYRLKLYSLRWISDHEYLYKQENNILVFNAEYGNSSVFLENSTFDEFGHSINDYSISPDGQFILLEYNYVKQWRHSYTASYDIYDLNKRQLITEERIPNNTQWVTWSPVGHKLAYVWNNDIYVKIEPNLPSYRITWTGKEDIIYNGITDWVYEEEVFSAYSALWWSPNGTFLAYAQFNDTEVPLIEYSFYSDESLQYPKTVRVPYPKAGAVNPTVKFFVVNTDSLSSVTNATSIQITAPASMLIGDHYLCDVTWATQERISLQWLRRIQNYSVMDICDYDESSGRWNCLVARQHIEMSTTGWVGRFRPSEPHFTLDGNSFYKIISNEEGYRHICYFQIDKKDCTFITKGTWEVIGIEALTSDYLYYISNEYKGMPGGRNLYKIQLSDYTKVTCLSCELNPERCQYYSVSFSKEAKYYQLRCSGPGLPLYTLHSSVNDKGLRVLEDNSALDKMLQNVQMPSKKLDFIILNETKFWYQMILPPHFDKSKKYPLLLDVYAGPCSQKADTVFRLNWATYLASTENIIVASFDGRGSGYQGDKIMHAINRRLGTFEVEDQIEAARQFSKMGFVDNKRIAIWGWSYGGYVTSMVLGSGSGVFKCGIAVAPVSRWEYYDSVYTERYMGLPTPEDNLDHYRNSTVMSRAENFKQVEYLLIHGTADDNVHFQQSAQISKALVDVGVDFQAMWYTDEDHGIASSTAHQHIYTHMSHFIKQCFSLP

Row | IC50 (DPP-IV) [µM] | IC50 (DPP-9; [1]) [µM] | Compound | IC50 (DPP-8) [µM] | IC50 (DPP-9) [µM]
1 |  |  | Cn1c(=O)n(Cc2ccccc2C#N)c2c(N3CCC[C@@H](N)C3)ccnc21 [Compound 1, (R)-2-[[7-(3-aminopiperidin-1-yl)-3-methyl-2-oxo-2,3-dihydro-1H-imidazo[4,5-b]pyridin-1-yl]methyl]benzonitrile] | > 100 | > 100
2 |  |  | CC(C)n1c(=O)n(Cc2ccccc2C#N)c2c(N3CCC[C@@H](N)C3)ccnc21 [Compound 2, (R)-2-[[7-(3-aminopiperidin-1-yl)-3-isopropyl-2-oxo-2,3-dihydro-1H-imidazo[4,5-b]pyridin-1-yl]methyl]benzonitrile] | > 100 | > 100
3 |  |  | Cn1c(=O)n(Cc2ccccc2F)c2c(N3CCC[C@@H](N)C3)ccnc21 [Compound 3, (R)-1-(2-fluorobenzyl)-7-(3-aminopiperidin-1-yl)-3-methyl-1H-imidazo[4,5-b]pyridin-2(3H)-one] | > 100 | > 100
4 | 0.545 | > 100 | Cn1c(=O)n(Cc2cc(F)ccc2F)c2c(N3CCC[C@@H](N)C3)ccnc21 [Compound 4, (R)-1-(2,5-difluorobenzyl)-7-(3-aminopiperidin-1-yl)-3-methyl-1H-imidazo[4,5-b]pyridine-2(3H)-one] | > 100 | 
5 |  |  | Cn1c(=O)n(Cc2ccccc2Cl)c2c(N3CCC[C@@H](N)C3)ccnc21 [Compound 5, (R)-1-(2-chlorobenzyl)-7-(3-aminopiperidin-1-yl)-3-methyl-1H-imidazo[4,5-b]pyridine-2(3H)-one] | > 100 | > 100
6 |  |  | CN[C@@H]1CCCN(c2ccnc3c2n(Cc2ccccc2C#N)c(=O)n3C)C1 [Compound 6, (R)-2-[[3-methyl-7-[3-(methylamino)piperidin-1-yl]-2-oxo-2,3-dihydro-1H-imidazo[4,5-b]pyridin-1-yl]methyl]benzonitrile] | > 100 | > 100
7 |  |  | N#Cc1ccccc1Cn1c(=O)oc2nccc(N3CCC[C@@H](N)C3)c21 [Compound 11, (R)-2-[[7-(3-aminopiperidin-1-yl)-2-oxo-oxazolo[5,4-b]pyridin-1(2H)-yl]methyl]benzonitrile] | > 100 | > 100
8 |  |  | Cn1c(=O)n(Cc2ccccc2C#N)c2c(N3CC[C@@H](N)C3)ccnc21 [Compound 12, (R)-2-[[7-(3-aminopyrrolidin-1-yl)-3-methyl-2-oxo-2,3-dihydro-1H-imidazo[4,5-b]pyridin-1-yl]methyl]benzonitrile] | > 100 | > 100
9 |  |  | Cn1c(=O)n(Cc2ccccc2C#N)c2c(N3CCCCC(N)C3)ccnc21 (centres unmarked) [Compound 15, 2-[[7-(3-aminohomopiperidin-1-yl)-3-methyl-2-oxo-2,3-dihydro-1H-imidazo[4,5-b]pyridin-1-yl]methyl]benzonitrile] | > 100 | > 100
10 | 0.0089 | > 100 | Cc1cc(N2CCC[C@@H](N)C2)c2c(n1)n(C)c(=O)n2Cc1ccccc1C#N [Compound 17, (R)-2-[[7-(3-aminopiperidin-1-yl)-3,5-dimethyl-2-oxo-2,3-dihydro-1H-imidazo[4,5-b]pyridin-1-yl]methyl]benzonitrile] | > 100 | 
11 |  |  | Cn1c(=O)n(Cc2ccccc2C#N)c2c(N3CCC[C@@H](N)C3)c3ccccc3nc21 [Compound 18, (R)-2-[[9-(3-aminopiperidin-1-yl)-3-methyl-2-oxo-2,3-dihydro-1H-imidazo[4,5-b]quinolin-1-yl]methyl]benzonitrile] | > 100 | > 100
12 |  |  | N#Cc1ccccc1Cn1c(=O)[nH]c2nccc(N3CCC[C@@H](N)C3)c21 [Compound 19, (R)-2-[[7-(3-aminopiperidin-1-yl)-2-oxo-2,3-dihydro-1H-imidazo[4,5-b]pyridin-1-yl]methyl]benzonitrile] | > 100 | > 100
13 | 0.0112 | > 100 | Cc1cc(N2CC[C@@H](N)C2)c2c(n1)n(C)c(=O)n2Cc1ccccc1C#N [Compound 21, (R)-2-[[7-(3-aminopyrrolidin-1-yl)-3,5-dimethyl-2-oxo-2,3-dihydro-1H-imidazo[4,5-b]pyridin-1-yl]methyl]benzonitrile] | > 100 | 
14 | 0.01 | > 100 | Cn1c(=O)n(Cc2ccccc2C#N)c2c(N3CCC[C@@H](N)C3)cc(Cl)nc21 [Compound 22] | > 100 | 
15 | 0.0229 | > 100 | CN(C)c1cc(N2CCC[C@@H](N)C2)c2c(n1)n(C)c(=O)n2Cc1ccccc1C#N [Compound 23, (R)-2-[[7-(3-aminopiperidin-1-yl)-5-(dimethylamino)-3-methyl-2-oxo-2,3-dihydro-1H-imidazo[4,5-b]pyridin-1-yl]methyl]benzonitrile] | > 100 | 
16 | 0.0193 | > 100 | CCc1cc(N2CCC[C@@H](N)C2)c2c(n1)n(C)c(=O)n2Cc1ccccc1C#N [Compound 25, (R)-2-[[7-(3-aminopiperidin-1-yl)-5-ethyl-3-methyl-2-oxo-2,3-dihydro-1H-imidazo[4,5-b]pyridin-1-yl]methyl]benzonitrile] | > 100 | 
17 | 0.0569 | > 100 | CCn1c(=O)n(Cc2ccccc2C#N)c2c(N3CCC[C@@H](N)C3)cc(C)nc21 [Compound 26, (R)-2-[[7-(3-aminopiperidin-1-yl)-3-ethyl-5-methyl-2-oxo-2,3-dihydro-1H-imidazo[4,5-b]pyridin-1-yl]methyl]benzonitrile] | > 100 | 
18 | 0.0135 | > 100 | Cn1c(=O)n(Cc2ccccc2C#N)c2c(N3CCC[C@@H](N)C3)cc(CO)nc21 [Compound 29, (R)-2-[[7-(3-aminopiperidin-1-yl)-3-methyl-5-hydroxymethyl-2-oxo-2,3-dihydro-1H-imidazo[4,5-b]pyridin-1-yl]methyl]benzonitrile] | > 100 | 
19 | 0.0079 | > 100 | Cn1c(=O)n(Cc2ccccc2C#N)c2c(N3CCC[C@@H](N)C3)cc(C(=O)O)nc21 [Compound 30, (R)-7-(3-aminopiperidin-1-yl)-1-(2-cyanobenzyl)-3-methyl-2-oxo-2,3-dihydro-1H-imidazo[4,5-b]pyridine-5-formylic acid] | > 100 | 
20 | 0.422 | > 100 | Cc1cc(N2CCC[C@@H](NCc3ccccc3C#N)C2)c2c(n1)n(C)c(=O)n2Cc1ccccc1C#N [Compound 31, (R)-7-[3-(2-cyanobenzyl)aminopiperidin-1-yl]-1-(2-cyanobenzyl)-3,5-dimethyl-2-oxo-2,3-dihydro-1H-imidazo[4,5-b]pyridine] | > 100 | 
